Tests used:
[1] = system: Huh7 cells; assay: MTT cell viability assay, Huh7; format: cell-based
Method: (§1) Cell lines, culture and reagents. The HCC cell lines Hep3B, PLC5 and Huh7, as well as primary nonmalignant human hepatocytes were used in this study. Cancer cells were cultured in Dulbecco's Modified Eagle's medium (DMEM) supplemented with 10% fetal bovine serum (FBS). Hepatocytes were maintained in defined Hepatocyte Culture Medium. […] Various polyclonal and monoclonal antibodies were used for western blotting, immunocytochemical, and flow cytometric analyses.
(§2) Cell viability assay. Cell viability was assessed by 3-(4,5-dimethylthiazol-2-yl)-2,5-diphenyl-2H-tetrazolium bromide (MTT) assays in six replicates. Cells were seeded (4,000 cells/well; 96-well plate) for 24 h and treated with test agents in 5% FBS-supplemented DMEM. After treatment, cells were incubated in medium containing 0.5 mg/ml MTT (37° C., 2 h). Reduced MTT was dissolved in DMSO (200 μL/well) and absorbances measured at 570 nm.

[2] = system: primary CLL cells; assay: Cytotoxicity in primary CLL cells (Annexin V / propidium iodide flow cytometry); format: cell-based; settings: primary CLL cells, 24 hrs, OSU-2S at 8 μM
Method: Antitumor and other effects of OSU-2S were also evaluated in Chronic Lymphoid Leukemia cells. OSU-2S cytotoxicity in primary CLL cells is measured at 24 hrs by staining for Annexin V and Propidium Iodide using Flow cytometer. The number of live cells (stained negative for both the stains) were normalized to untreated control. Fludarabine metabolite (2-Fara) was used as a control.
The effect of OSU-2S was evaluated in 3 different CLL cell lines (WROTH<THOU, and RAHUE) over a 24 hour period, as shown in FIG. 9. Time dependent OSU-2S cytotoxicity in primary CLL cells was measured by treating the cells with OSU-2S (8 μM) for indicated period of time and washed and cultured in the fresh media for 24 hr. The number of live cells stained negative for Annexin V and Propidium Iodide were measured at 24 hrs by using Flowcytometer and normalized to untreated control.
CD37 activation and OSU-2S produced enhanced cytotoxicity in CLL cells, as detected by flow cytometer at 24 hr. in CLL cells treated with CD37 antibody and cross linker or OSU-2S 8 μM or with both are stained for Annexin V and propidium iodide at 24 hr.

[3] = system: CLL cells; assay: Western blot analysis in CLL cells (PARP, caspase 3, caspase 9); format: cell-based
Source text: Western blot analysis as carried out to further observe the effects of OSU-2S in CLL cells. […] OSU-2S in CLL activates caspase, as evidenced by cleavage of poly (ADP-ribose) polymerase (PARP). Jurkat cell with or without UV irradiation were included as controls. […] OSU-2S was also shown to activate caspase 3 in CLL cells. […] Finally, OSU-2S activates caspase 9 in CLL.

[4] = molecular target: T1, S1P1 receptor-overexpressing Huh7 cells (Homo sapiens, UniProt P21453); assay: Immunocytochemical analysis of S1P1 receptor internalization; format: cell-based; settings: immunocytochemistry
T1 construct: expressed in transfected cells
T1 sequence (P21453 whole entry): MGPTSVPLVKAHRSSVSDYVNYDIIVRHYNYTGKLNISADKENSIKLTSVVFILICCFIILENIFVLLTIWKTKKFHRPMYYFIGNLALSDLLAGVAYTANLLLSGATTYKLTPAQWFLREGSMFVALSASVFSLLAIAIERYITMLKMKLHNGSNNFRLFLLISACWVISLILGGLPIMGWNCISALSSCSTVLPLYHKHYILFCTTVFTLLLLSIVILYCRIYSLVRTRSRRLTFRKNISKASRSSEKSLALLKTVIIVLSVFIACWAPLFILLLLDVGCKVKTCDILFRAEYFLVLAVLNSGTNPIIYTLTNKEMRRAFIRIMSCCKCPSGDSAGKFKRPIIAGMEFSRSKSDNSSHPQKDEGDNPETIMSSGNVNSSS
Method: Immunocytochemistry. Immunocytochemical analysis of S1P1 internalization and PKCδ nuclear translocation were performed as described. […] Briefly, treated cells were washed, fixed with 4% paraformaldehyde, and permeabilized with 0.1% Triton X-100. After blocking with 2% FBS, cells were incubated with rabbit anti-S1P1 or rabbit anti-PKCδ antibodies (1:200 dilution, 4° C., 24 h), followed by Alexa Fluor 488-conjugated goat anti-rabbit IgG (room temperature, 1 h). Nuclei were counterstained with a 4,6-diamidino-2-phenylindole (DAPI)-containing mounting medium (Vector Laboratories, Burlingame, Calif.).

[5] = system: lymphocytes in peripheral blood; assay: In vivo evaluation of T-lymphocyte homing; settings: CD2F1 mice, i.p., 6 h
Method: In vivo evaluation of T-lymphocyte homing. […] Six hours later, animals were sacrificed, and peripheral blood mononuclear cells were prepared as described. Dragun et al., Kidney Int 65, 1076-1083 (2004). Cells were stained with FITC-labeled rat anti-mouse CD3 molecular complex and PE-labeled rat anti-mouse CD45RA (4° C., in darkness, 30 min), and analyzed by flow cytometry.

[6] = system: Hep3B cells; assay: MTT cell viability assay, Hep3B; format: cell-based; settings: Homo sapiens, 24 h of treatment
Method: as §1, §2

[7] = system: PLC5 cells; assay: MTT cell viability assay, PLC5; format: cell-based; settings: 24 h of treatment
Method: as §1, §2

[8] = system: normal human hepatocytes; assay: MTT cell viability assay, normal hepatocytes; format: cell-based; settings: 24 h
Method: as §1, §2

[9] = molecular target: T1, S1P1 receptor-overexpressing Huh7 cells; assay: Cell viability in stable S1P1 receptor transfectants; format: cell-based; settings: two stable S1P1 clones vs wild-type Huh7
Method: as §2
Overexpression of S1P1 Receptors. Huh7 or Hep3B cells were transfected with plasmids encoding S1PR1, Flag-tagged GST-π or hemagglutinin (HA)-tagged, CA-Akt. The corresponding empty vectors were used as controls. Stable clones were selected over 3 weeks by geneticin, and the expression of cloned proteins was confirmed by Western blotting.

[10] = system: PTEN, p53, Mcl-1 in Huh7 cells; assay: Western blot of signaling markers in drug-treated Huh7 cells; format: cell-based; settings: 24 h
Method: Immunoblotting. Immunoblotting of biomarkers in cell lysates and tumor tissue homogenates was carried out according to a published procedure. Hung et al., Cancer Res., 68, 1204-1212 (2008).

[11] = system: subcutaneous Hep3B tumors; assay: Ectopic (subcutaneous) Hep3B xenograft tumor model; format: in vivo, athymic nude mice
Method: (§3) Xenograft tumor models. Ectopic tumors were established in athymic nude mice by subcutaneous injection of 1×10^6 Hep3B cells in a total volume of 0.1 ml of serum-free medium containing 50% Matrigel. Mice with established tumors were randomized to five groups (n=8) that received daily i.p. injections of OSU-2S or FTY720 at 5 or 10 mg/kg, or the vehicle. Tumor burdens were determined weekly using calipers (volume=width^2×length×0.52). Body weights were measured weekly. At the study endpoint, tumors were harvested, snap-frozen and stored at −80° C. for biomarker analysis. Blood and tissues were collected for evaluation of complete blood counts, serum chemistry and histopathology.

[12] = system: orthotopic Hep3B-luc tumors; assay: Orthotopic Hep3B-luc xenograft tumor model; format: in vivo, athymic nude mice; set-up: dose or concentration left out as unconfirmed; settings: by three weeks
Source text: Orthotopic tumors were established by direct intrahepatic injection of luciferase-expressing Hep3B (Hep3B-luc) cells as described. Omar et al., Mol Pharmacol, 76, 957-968 (2009). The establishment and growth of tumors were monitored by bioluminescent imaging using the IVIS™ imaging system (Xenogen, Alameda, Calif.). […] All animal use described in this manuscript was done in accordance with protocols approved by The Ohio State University Institutional Animal Care and Use Committee.

[13] = Toxicity evaluation in tumor-bearing mice (body weight, blood counts, histopathology); format: in vivo, athymic nude mice; settings: for mice with abdominal adhesions with varying amounts of peritonitis: of six mice per group examined histologically
Method: as §3
Orthotopic tumors were established by direct intrahepatic injection of luciferase-expressing Hep3B (Hep3B-luc) cells as described. Omar et al., Mol Pharmacol, 76, 957-968 (2009). The establishment and growth of tumors were monitored by bioluminescent imaging using the IVIS™ imaging system (Xenogen, Alameda, Calif.). Two weeks after tumor cell injection, animals with established tumors were randomized to three groups (n=3) that received daily i.p. injections of FTY720 or OSU-2S at 5 mg/kg, or vehicle for 42 days and were imaged weekly. All animal use described in this manuscript was done in accordance with protocols approved by The Ohio State University Institutional Animal Care and Use Committee.

[14] = molecular target: T2, PP2A (Serine/Threonine Phosphatase 2A) (Homo sapiens, UniProt P67775); assay: PP2A functional enzymatic assay (malachite green) in primary CLL cells; format: cell-based; settings: 24 hrs, OSU-2S 8 μM, untreated about 0.07
T2 construct: endogenous in cells; host or cells: primary CLL cells; Ramos cells
T2 sequence (P67775 whole entry): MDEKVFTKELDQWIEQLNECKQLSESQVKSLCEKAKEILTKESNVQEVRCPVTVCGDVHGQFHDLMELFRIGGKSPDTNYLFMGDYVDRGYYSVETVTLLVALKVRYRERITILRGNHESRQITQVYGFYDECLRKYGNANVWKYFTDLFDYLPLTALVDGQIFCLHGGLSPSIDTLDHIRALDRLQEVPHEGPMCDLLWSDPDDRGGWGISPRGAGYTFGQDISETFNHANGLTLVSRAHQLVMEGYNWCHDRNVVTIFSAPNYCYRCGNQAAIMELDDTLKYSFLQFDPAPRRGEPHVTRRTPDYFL
Method: The ability of OSU-2S to induce PP2A (Serine/Threonine Phosphatase 2A) activity in primary CLL cells was measured at 24 hrs by a functional enzymatic assay. Lysates made from OSU-2S 8 μM treated cells are used to immunoprecipitate PP2Ac which was then used as an enzyme to cleave the specific phosphor-peptide substrate in the functional assay. The cleaved free phosphates were measured by adding malachite green detection solutions and measuring the absorbance at A650 nm. Ramos cells were also included, and FTY720 was used as the control.

[15] = system: SphK2 siRNA-transfected Huh7 cells; assay: Cell viability after siRNA-mediated knockdown of SphK2; format: cell-based; settings: SphK2 siRNA vs scrambled
Method: as §2
Small interfering (si)RNA- or short hairpin (sh)RNA-mediated knockdown. PLC5 and Huh7 cells were transfected with the following siRNA duplexes or shRNA plasmids according to the manufacturer's protocol for the knockdown of target genes: siRNA: glutathione S-transferase (GST)-π and sphingosine kinase 2 (SphK2); shRNA constructs: pKD-PKCδ-v2. Stable clones were isolated from Huh7 cells transfected with shRNA plasmids were further subjected to stable clone isolation by geneticin. Immunoblotting was performed to confirm the knockdowns.

CCCCCCCCc1ccc(CCC(N)(CO)COP(=O)(O)O)cc1 (stereo not drawn) [p-FTY720]
suppression of HCC cell viability by phosphate derivatives ([1]; 24 h, MTT (FIG. 6A)): lacks in vitro efficacy

Nc1nc(F)nc2c1ncn2[C@@H]1O[C@H](CO)[C@@H](O)[C@@H]1O [2-Fara, reference compound]
growth (live cells normalized to untreated control) [2]: 100% | caspase 3 activation ([3]; 24 and 48 hours, products at about 16-18 kD): caspase 3 cleaved products | caspase 9 activation ([3]; products at about 30-34 kD): caspase 9 cleaved products

CCCCCCCCc1ccc(CCC(N)(CO)CO)cc1 [FTY720]
S1P1 receptor internalization and clustering in the cytoplasm [4]: profound effect | drop in the number of T lymphocytes in peripheral blood ([5]; 1 mg/kg): ≥ 75% | changes in circulating B lymphocytes [5]: no comparable changes | IC50 ([1]; Homo sapiens, Huh-7, 24 h of treatment, MTT): 4.8 µM | IC50 [6]: 4.2 µM | IC50 [7]: 6.2 µM | sensitivity of normal human hepatocytes relative to malignant cells [8]: resistant | effect of S1P1 receptor overexpression on antiproliferative activity [9]: partially protected | effect on expression levels of PTEN, p53, or Mcl-1 [10]: neither OSU-2S nor FTY720 had an appreciable effect | ectopic Hep3B tumor growth vs vehicle control ([11]; 5 mg/kg, i.p. once daily, P<0.001): completely suppressed | dose dependency of tumor-suppressive response ([11]; 5 and 10 mg/kg i.p. daily): no dose dependency | intratumoral biomarkers of drug activity ([11]; Hep3B tumor tissue homogenates, Western blot): PKCδ and caspase-3 were activated | orthotopic tumor burden (bioluminescence) [12]: suppressed mean tumor burden to the original level | mice with abdominal adhesions with varying amounts of peritonitis ([13]; 5 mg/kg): three | mice with abdominal adhesions with varying amounts of peritonitis ([13]; 10 mg/kg): all | lymphocyte levels ([13]; ectopic tumor-bearing mice at study endpoint): minimal to mild lymphopenia | overt toxicity and body weight ([13]; ectopic tumor-bearing mice, daily i.p. 5 or 10 mg/kg): no overt signs of toxicity and no loss of body weight | tolerability (stable body weights) ([13]; orthotopic tumor-bearing mice, daily i.p., 42 days): well tolerated | PP2A activity, absorbance at A650 nm [14]: about 0.20 | effect of SphK2 knockdown on antiproliferative activity (sensitizing effect) [15]: significantly increased

Reference: US8309768B2, “FTY720-derived anticancer agents” (The Ohio State University Research Foundation, priority 2010, dated 2012)
